Test results from patent US10092622B2 (M[…] University Research and Technology Corporation, priority 2009, dated 2018).
Entries after “also recorded” stand apart in the source; their conditions may differ. Read-outs that look alike come from different tables or passages of the source. Numbered stars: 1 amine (or outer) side, 2 acyl side, 3 side chain; on linkers, the order of the positions; unused ones are H or OH. Bridge positions count the residues as written; N and C are the ends. Square brackets hold non-standard residues; d marks the D form. Peptide text beside a SMILES is read from it. * marks the point of attachment. hTyr(3S-OH,4S-OH,3'-OSO3H) = N[C@H](C(=O)O)[C@H](O)[C@@H](O)c1ccc(O)c(OS(=O)(=O)O)c1; Orn(4R-OH,5R-OH) = O=C([C@H](C[C@@H](O)[C@@H](O)N[*:3])N[*:1])[*:2]; Pro(3S-OH,4S-Me) = C[C@H]1CN[C@H](C(=O)O)[C@H]1O; X1 = CCCCCOc1ccc(-c2cc(-c3ccc(C(=O)*)cc3)no2)cc1; Gln(3R-OH) = NC(=O)C[C@@H](O)[C@H](N)C(=O)O; Hyp = O=C(O)[C@@H]1C[C@@H](O)CN1

Experiments:
A. fumigatus = settings: cited from earlier work
Alternaria alternata = test: Antifungal susceptibility testing, agar micro-dilution; assay type: cell-based; settings: 48 hours
From the text: (§1) Microbial organisms. Fungal strains were obtained from collections at Mississippi State University's Veterinary Medical Research and Diagnostic Laboratory System and Entomology and Plant Pathology Department or were purchased from the American Type Culture Collection (Manassas, Va.). Fungal isolates used in this study were Alternaria alternata, Aspergillus fumigatus, Aspergillus niger; Fusarium oxysporum f. sp. lycopersici ATCC9848, Geotrichum candidum F-260, Macrophomina phaseolina 61, Microsporum gypseum, Penicillium sp., Rhizoctonia solani MSCOT-I, and Trichophyton mentagrophytes. In addition, two Pythium species were tested: Pythium spinosum 472-04 and Pythium ultimum 671-04.
(§2) Antifungal susceptibility testing. Minimum inhibitory concentrations were determined by agar micro-dilution testing. […] One (1) mL of Sabouraud dextrose agar Difco™ (BD Diagnostics, Franklin Lakes, N.J.) was added to each well. Once the agar solidified, the plates were stored inverted at 4° C. until used. Fungal cultures were grown on 100×15 mm Sabouraud dextrose agar plates (Thermo Fisher Scientific Remel Products, Lenexa, Kans.) at 22° C. for 7 days. A circular punch, containing a 1 cm in diameter plug of the fungi from the agar plate, was made from an area of the plate having a confluent growth of the fungi. The plug was place in 3 mL of PBS and ground with approximately 30 strokes of a Ten-brock homogenizer. Five (5) μL of the supernatant was placed in the center of each well and allowed to dry before incubating the microtiter plates at 22° C. Minimum inhibitory concentrations were measured at 48 hours for each species, except for Trichophyton mentagrophytes, which was measured at 72 hours. MICS were determined as the lowest concentration that inhibited visible fungal growth.

Aspergillus fumigatus = test: as above; assay type: cell-based; settings: A. fumigatus; 48 hours
From the text: as §1, §2

Aspergillus niger = test: as above; assay type: cell-based; settings: A. niger; 48 hours
From the text: as §1, §2

[1] = tested on: Fusarium oxysporum f. sp. lycopersici ATCC9848; test: as above; assay type: cell-based; settings: 48 hours
From the text: as §1, §2

[2] = tested on: Geotrichum candidum F-260; test: as above; assay type: cell-based; settings: G. candidum; 48 hours
From the text: as §1, §2

[3] = tested on: Macrophomina phaseolina 61; test: as above; assay type: cell-based; settings: 48 hours
From the text: as §1, §2

Microsporum gypseum = test: as above; assay type: cell-based; settings: 48 hours
From the text: as §1, §2

Penicillium sp. = test: as above; assay type: cell-based; settings: 48 hours
From the text: as §1, §2

Pythium spinosum 472-04 = test: as above; assay type: cell-based; settings: P. spinosum; 48 hours
From the text: as §1, §2

Pythium ultimum 671-04 = test: as above; assay type: cell-based; settings: P. ultimum; 48 hours
From the text: as §1, §2

[4] = tested on: Rhizoctonia solani MSCOT-I; test: as above; assay type: cell-based; settings: R. solani
From the text: as §1, §2

[5] = tested on: Trichophyton mentagrophytes; test: as above; assay type: cell-based; settings: 72 hours
From the text: as §1, §2

Rhizoctonia solani = test: Light microscopy of hyphae grown at sub-inhibitory concentration; assay type: cell-based; settings: R. solani; subinhibitory concentration 0.5 μg/mL; versus control
Experimental: (§3) Microscopy. […] For each of the fungi, the hyphae or arthrospores with an observed MIC50 at 48 hours growing next to the MIC well were used for preparation of light microscopy and transmission electron microscopy (TEM) slides. For light microscopy, lactophenol cotton blue solution (Sigma) was used as a positive stain and mounting medium for the slide. For TEM, the G. candidum samples were fixed at 4° C. with 2.5% glutaraldehyde in 0.1 M phosphate buffer (pH 7.2). After being rinsed with the buffer, specimens were post-fixed with 2% osmium tetroxide in the phosphate buffer. The specimens washed with the phosphate butler were dehydrated in graded ethanol serials (50-100%), and then embedded in Spurr's resin. Thin sections generated with a Reichert-Jung Ultracut E Ultramicrotome (60-90 nm) were double stained with uranyl acetate and lead citrate as described previously. The grids were observed under a transmission electron microscope Jeol JEM-100CX11 (Joel Ltd., Tokyo, Japan). Images were taken at magnifications between 5,000 and 8,000.

Geotrichum candidum [6] = test: Light microscopy of arthrospores; assay type: cell-based; settings: G. candidum; 4 μg/mL for 48 hours; versus untreated
Experimental: as §3

Geotrichum candidum [7] = test: Transmission electron microscopy of arthrospores; assay type: cell-based; settings: G. candidum; subinhibitory 4 μg/mL for 48 hours; TEM; versus untreated
Experimental: as §3

Molecule: CCCCCOc1ccc(-c2cc(-c3ccc(C(=O)N[C@H]4C[C@@H](O)[C@@H](O)NC(=O)[C@@H]5[C@@H](O)[C@@H](C)CN5C(=O)[C@H]([C@H](O)CC(N)=O)NC(=O)[C@H]([C@H](O)[C@@H](O)c5ccc(O)c(OS(=O)(=O)O)c5)NC(=O)[C@@H]5C[C@@H](O)CN5C(=O)[C@H]([C@@H](C)O)NC4=O)cc3)no2)cc1 [micafungin] (X1-[Orn(4R-OH,5R-OH)]T[Hyp][hTyr(3S-OH,4S-OH,3'-OSO3H)][Gln(3R-OH)][Pro(3S-OH,4S-Me)]; lactam 1-C)
- hyphal morphology (A. fumigatus; inhibitory concentrations): hyphal burst
- hyphal morphology (A. fumigatus; sub-inhibitory concentrations): undulated membranes and deformed hyphae tips

Molecule: occidiofungin
- MIC (Alternaria alternata): 8 µg/mL
- MIC (Aspergillus fumigatus): 8 µg/mL
- MIC (Aspergillus niger): 4 µg/mL
- MIC [1]: > 32 µg/mL
- concentration with significant growth inhibition [1]: 16 µg/mL
- MIC [2]: 8 µg/mL
- concentration with remarkable growth inhibition (MIC50) [2]: 4 µg/mL
- MIC [3]: 2 µg/mL
- MIC (Microsporum gypseum): 4 µg/mL
- MIC (Penicillium sp.): 32 µg/mL
- MIC (Pythium spinosum 472-04): 1 µg/mL
- MIC (Pythium ultimum 671-04): 2 µg/mL
- reduction in growth ([4]; 0.5 μg/mL occidiofungin): > 50%
- concentration with significant growth inhibition (MIC50, >50% growth inhibition) ([4]; 48 hours): 0.5 µg/mL
- MIC [5]: 4 µg/mL
- hyphal morphology (Rhizoctonia solani): significant hyphal morphological changes
- arthrospore/cell morphology (Geotrichum candidum [6]): significant swelling of the cells; also recorded: amorphous shapes due to cellular swelling
- cell wall thickness (Geotrichum candidum [7]): drastically reduced; also recorded: dramatic decrease in cell wall thickness
